This is an account of results in PubChem BioAssay (NCI).

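Values below derive from 48-hour exposures of cells grown in 96-well plates, with endpoints linearly interpolated between the two concentrations bracketing the appropriate inhibition level. TGI: total growth inhibition.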

Some test systems named below: COLO 205 colon; TK-10 renal; OVCAR-5 ovarian; A549 NSCLC; MDA-N; MOLT-4 leukemia; SF-295 CNS; RPMI-8226 leukemia; MALME-3M melanoma; PC-3 prostate; NCI-H23 lung; MCF7 breast; HCT-15 colon; LOX IMVI melanoma; SF-539 CNS; UACC-257 melanoma; 786-0 renal; SNB-19 CNS; HCC-2998 colon.
Holding throughout (assay): inhibition of tumour cell growth, NCI panel, 48 h

`N/C(=N\N=C\c1nc2ccccc2o1)c1cnccn1`: the TGI in the assay on COLO 205 colon, with TK-10 renal, with OVCAR-5 ovarian, in the assay on A549 NSCLC, in the assay with MDA-N and in the assay on MOLT-4 leukemia was more than 100 µM each time. The TGI with SF-295 CNS is more than 100 µM; in the assay with RPMI-8226 leukemia, more than 100 µM; with MALME-3M melanoma it was 4.38 µM; in the assay on PC-3 prostate, more than 100 µM; in the assay on NCI-H23 lung, more than 100 µM; with MCF7 breast, more than 100 µM. Further, the TGI with HCT-15 colon, in the assay with LOX IMVI melanoma, in the assay with SF-539 CNS, in the assay with UACC-257 melanoma, in the assay on 786-0 renal and in the assay on SNB-19 CNS was more than 100 µM throughout.

Turning to `CC(C)(C)n1c(=O)n2c(-c3ccccc3)c(-c3ccccc3)n2c1=O`, the TGI in the assay with COLO 205 colon, in the assay with TK-10 renal, in the assay on OVCAR-5 ovarian, in the assay on A549 NSCLC, with MDA-N and with HCC-2998 colon was more than 100 µM each time. The TGI in the assay with SF-295 CNS was more than 100 µM; in the assay with RPMI-8226 leukemia, 61.1 µM; in the assay with MALME-3M melanoma, more than 100 µM; in the assay on PC-3 prostate, more than 100 µM; with NCI-H23 lung, more than 100 µM; in the assay with MCF7 breast it was more than 100 µM. In addition, the TGI in the assay on HCT-15 colon, with LOX IMVI melanoma, with SF-539 CNS, with UACC-257 melanoma, with 786-0 renal and with SNB-19 CNS was more than 100 µM in each case.

As for `CC1C(OS(=O)(=O)c2ccc3[nH]c(=S)sc3c2)CC2C3(C)CCC2(C(C)C(=O)O)C(O)C13` (configuration not stated), the TGI in the assay on COLO 205 colon is 38 µM; in the assay on TK-10 renal, more than 100 µM; with OVCAR-5 ovarian it was 93.3 µM; in the assay on A549 NSCLC, more than 100 µM; in the assay with MDA-N it was 69.8 µM; in the assay with MOLT-4 leukemia, more than 100 µM. The TGI is more than 100 µM with HCC-2998 colon; 95.1 µM in the assay on SF-295 CNS; 40.8 µM in the assay with RPMI-8226 leukemia; 83.8 µM in the assay on MALME-3M melanoma; more than 100 µM with PC-3 prostate; 38.3 µM with NCI-H23 lung. For the same compound, the TGI with MCF7 breast was more than 100 µM; in the assay with HCT-15 colon, 27.1 µM; with SF-539 CNS, 46 µM; in the assay on UACC-257 melanoma it was more than 100 µM; with 786-0 renal it was 56.8 µM; in the assay on SNB-19 CNS, more than 100 µM.

Consider `O=[N+]([O-])c1ccc2c3c1[C@@H]1O[C@@H]1c1cccc(c1-3)[C@@H]1O[C@H]21`, for which the TGI in the assay with COLO 205 colon is 23.1 µM; with TK-10 renal, more than 51.2 µM; in the assay with OVCAR-5 ovarian it was 31.3 µM; in the assay with A549 NSCLC, 31 µM; in the assay on MDA-N, 10.5 µM; with MOLT-4 leukemia, more than 100 µM. The TGI in the assay with SF-295 CNS is 40.8 µM; with RPMI-8226 leukemia, more than 100 µM; in the assay on MALME-3M melanoma, 12.7 µM; in the assay with PC-3 prostate, more than 28.5 µM; with NCI-H23 lung it was 11.6 µM; in the assay with MCF7 breast, more than 100 µM. The TGI with HCT-15 colon was 6.05 µM; in the assay with LOX IMVI melanoma, 3.44 µM; in the assay with SF-539 CNS it was 4.02 µM; in the assay with UACC-257 melanoma, more than 25.1 µM; in the assay on 786-0 renal it was 7.85 µM; with SNB-19 CNS it was more than 58.5 µM.

With `CCOC(=O)c1nc2ccc(C(F)(F)F)cc2nc1Oc1ccc(OC)cc1`, the TGI in the assay with COLO 205 colon, in the assay with TK-10 renal, with OVCAR-5 ovarian, in the assay on A549 NSCLC, with MDA-N and with MOLT-4 leukemia was more than 100 µM throughout. Besides, the TGI in the assay on SF-295 CNS, in the assay with RPMI-8226 leukemia, in the assay with MALME-3M melanoma, in the assay with PC-3 prostate, in the assay on MCF7 breast and with HCT-15 colon was more than 100 µM in each case. Also, the TGI in the assay with LOX IMVI melanoma, in the assay on SF-539 CNS, in the assay with UACC-257 melanoma, in the assay on 786-0 renal and with SNB-19 CNS was more than 100 µM in each case.

For `Cc1cccc(C)c1NC(=O)C(=O)CC(=O)c1sc(Nc2c(C)cccc2C)nc1C`, the TGI in the assay with COLO 205 colon, with TK-10 renal, with OVCAR-5 ovarian, in the assay on A549 NSCLC, in the assay on MDA-N and with MOLT-4 leukemia was more than 100 µM in each case. Besides, the TGI in the assay on HCC-2998 colon, with SF-295 CNS, in the assay on RPMI-8226 leukemia, in the assay on PC-3 prostate, in the assay on NCI-H23 lung and in the assay on MCF7 breast was more than 100 µM each time. In addition, the TGI in the assay with HCT-15 colon, in the assay on LOX IMVI melanoma, in the assay with SF-539 CNS, in the assay with UACC-257 melanoma, in the assay on 786-0 renal and in the assay with SNB-19 CNS was more than 100 µM throughout.

For the compound `COc1ccc(/C=C2\C[C@H]3[C@@H]4CC=C5C[C@@H](O)CC[C@]5(C)[C@H]4CC[C@]3(C)\C2=N\O)cc1`, the TGI is 29 µM in the assay with COLO 205 colon; more than 100 µM in the assay with TK-10 renal; more than 100 µM with A549 NSCLC; more than 100 µM in the assay with MDA-N; 34.3 µM in the assay on MOLT-4 leukemia; 34.8 µM in the assay on SF-295 CNS. The TGI in the assay on RPMI-8226 leukemia is 21.9 µM; in the assay with MALME-3M melanoma it was 76.6 µM; in the assay on PC-3 prostate it was more than 100 µM; in the assay with NCI-H23 lung it was more than 100 µM; in the assay with MCF7 breast it was more than 100 µM; with HCT-15 colon it was more than 100 µM. The TGI with LOX IMVI melanoma was 33.3 µM; in the assay with SF-539 CNS, more than 100 µM; with UACC-257 melanoma, 45.7 µM; in the assay with 786-0 renal, 44.3 µM; with SNB-19 CNS, more than 100 µM.

`COC(=O)/C=C1\C(CO[Si](C)(C)C(C)(C)C)OC(n2ccc(=O)[nH]c2=O)C1O` (configuration not stated): the TGI in the assay with COLO 205 colon is 10.3 µM; with TK-10 renal it was more than 100 µM; with OVCAR-5 ovarian, 50.9 µM; with A549 NSCLC it was 82.9 µM; in the assay on MDA-N, more than 66.4 µM; with MOLT-4 leukemia it was more than 31.6 µM. Also, the TGI is 26.2 µM in the assay with HCC-2998 colon; more than 100 µM with SF-295 CNS; 29.4 µM with RPMI-8226 leukemia; more than 27.9 µM in the assay with PC-3 prostate; 55.3 µM with NCI-H23 lung; 31.4 µM in the assay on MCF7 breast. Besides, the TGI in the assay on HCT-15 colon was 35.2 µM; in the assay on LOX IMVI melanoma, 15.5 µM; in the assay on SF-539 CNS, 30.2 µM; in the assay with UACC-257 melanoma, more than 40.4 µM; in the assay on 786-0 renal it was 16.6 µM; with SNB-19 CNS it was more than 100 µM.
